Assay [1] concerns P. vivax oocysts and sporozoites in Anopheles darlingi. Description: Direct membrane feeding assay (DMFA), P. vivax gametocytes, A. darlingi mosquitoes. It counts as in vivo, Plasmodium vivax. The settings on record: for reduction of the density of sporozoites per mosquito: 14 days after feeding; for reduction in the oocyst density per mosquito midgut: day 7. The procedure:
Participants were recruited from patients diagnosed with P. vivax malaria via Giemsa-stained blood smears at CEPEM in Porto Velho, Rondônia, Brazil (#28176720.9.0000.0011). Criteria included: P. vivax parasitemia >2000 parasites/μL, age 18–85, no severe malaria, no concomitant diseases, nonpregnant, and consent to study procedures. Approximately 10 mL of venous blood was collected into heparin-coated vials, maintained at 37 °C, and transported to PIVEM for DMFA. Malaria treatment followed Brazilian Ministry of Health guidelines and was unaffected by study participation.
Anopheles darlingi mosquitoes are maintained in the PIVEM insectary at Fiocruz Rondônia since 2018. Mosquitoes were raised at a temperature of 26 °C ± 1 °C and a relative humidity of 70 ± 10%, being fed a 15% honey solution.
Before the DMFA, female mosquitoes were starved of sucrose overnight. Six P. vivax isolates were used, and 40–100 mosquitoes per group were fed P. vivax-infected blood for 30 min using a Hemotek membrane feeder at 37 °C. Unfed mosquitoes were removed, and engorged ones were maintained for sporogony, receiving a 15% honey solution refreshed every 2 days. Midguts were dissected on day 7 and salivary glands on day 14 postblood feeding, to assess midgut oocyst load and salivary gland sporozoite load, respectively.
Mosquitoes were anesthetized on ice, immersed in 70% ethanol, and dissected in PBS. Midguts were stained with 0.2% mercurochrome and examined microscopically for oocysts. Salivary glands were pooled (5 mosquitoes per sample), and homogenized in 15 μL RPMI, and sporozoites were counted using a Neubauer chamber.

Assay [2] relates to Plasmodium falciparum 3D7 sensitive strain. Description: SYBR Green growth assay, asexual blood stages, 3D7 sensitive strain. It counts as cell-based. The procedure:
(§1) Parasite strains SB1-A6, 7G8, V1/S, and HB3 were acquired from BEI-MR4, while the ATQ R1 strain, carrying a V259L gene mutation, was generated in-house. […] Parasitemia was monitored using Giemsa-stained blood smears.
(§2) Bioassays were conducted with synchronized ring-stage parasites using sorbitol synchronization. Antimalarial compounds were evaluated in 96-well plates, and parasite growth was assessed using a SYBR Green-based fluorescence assay The assays were conducted when the parasite quantity reached at least 70% of the ring stage. Compounds were initially added at specific concentrations in the first wells, followed by serial dilution (1:2) ranging from 20 μM to 0.009 μM. Subsequently, a solution containing parasites in RPMI medium at a hematocrit of 2% was added to each well, and the parasites were then incubated for 72 h.
(§3) The IC50 values were determined using concentration–response curves generated in GraphPad 8 software. Additionally, the resistance index was calculated by comparing IC50 values obtained for the sensitive 3D7 strain with those of the resistant strains.

Assay [3] deals with P. falciparum V1/S strain. Description: microbe, parasite or virus in culture. It counts as cell-based, Plasmodium falciparum. Particulars: for IC50: Plasmodium falciparum. The procedure: (§4) Healthy blood samples for parasite culture were obtained from voluntary donors (approved under protocol #28176720.9.0000.0011), processed to remove white blood cells, and stored at 2 °C–8 °C for up to 15 days. Parasite strains SB1-A6, 7G8, V1/S, and HB3 were acquired from BEI-MR4, while the ATQ R1 strain, carrying a V259L gene mutation, was generated in-house. Infected erythrocytes were cultured in RPMI 1640 medium supplemented with Hepes, sodium bicarbonate, glucose, Albumax, and gentamicin, […], and incubated in a 5% CO2, 5% O2, and 90% N2 gas mixture at 37 °C with daily medium changes. Parasitemia was monitored using Giemsa-stained blood smears.
as §2
(§5) To assess parasite growth, the culture medium was replaced with a lysis solution (Trisbase: 49.31%, EDTA: 30.00%, Saponin: 0.16%, Triton: 0.02%) containing the fluorescent dye SYBR Green (Sigma). After a 30 min incubation, fluorescence readings were taken to determine the 50% inhibitory concentration (IC50) of parasite growth. The IC50 values were determined using concentration–response curves generated in GraphPad 8 software. Additionally, the resistance index was calculated by comparing IC50 values obtained for the sensitive 3D7 strain with those of the resistant strains.

The subject of assay [4] is P. falciparum SB1-A6 strain. In words: SYBR Green growth assay, asexual blood stages, SB1-A6 strain. It counts as cell-based, Plasmodium falciparum. The procedure: as §4, §2, §5
The test system of assay [5] is P. berghei exflagellation centers. In words: Ex vivo exflagellation assay, blood of P. berghei infected mice. The class given is cell-based, Plasmodium berghei. Particulars: 15 min incubation. The procedure:
For the ex vivo assays, a female CD1 mouse between 4 and 5 weeks of age (n = 3) was infected with P. berghei. After 4 days, when the presence of parasites (sexual phases) in the blood was observed by Giemsa-stained blood smear microscopy, the total blood from the mouse was collected into a preheated tube at 37 °C containing RPMI medium supplemented with 20% Fetal Bovine Serum (FBS) and 200 units/mL of heparin as an anticoagulant. The tube was maintained at 37 °C and centrifuged at 1500 rpm for 5 min. The supernatant was discarded, and the blood was resuspended in 20 mL of RPMI medium supplemented with 20% FBS.
One milliliter of resuspended blood was added to each well of a 6-well plate containing 5 μM methylene blue (positive control), test compound 1 at 10 μM and 1 μM, and DMSO (negative control). After 15 min, the wells were homogenized, and 10 μL of the content was collected into an Eppendorf tube and incubated at room temperature for another 15 min. The sample was then transferred to a Neubauer chamber, and exflagellation centers were counted using an optical microscope at 40× magnification.

Assay [6] concerns P. falciparum multidrug-resistant strains. In words: SYBR Green growth assay, summary over panel of resistant strains. It counts as cell-based. The settings on record: Plasmodium falciparum. The procedure: as §4
Bioassays were conducted with synchronized ring-stage parasites using sorbitol synchronization. Antimalarial compounds were evaluated in 96-well plates, and parasite growth was assessed using a SYBR Green-based fluorescence assay The assays were conducted when the parasite quantity reached at least 70% of the ring stage. […]
To assess parasite growth, the culture medium was replaced with a lysis solution (Trisbase: 49.31%, EDTA: 30.00%, Saponin: 0.16%, Triton: 0.02%) containing the fluorescent dye SYBR Green (Sigma). […] The IC50 values were determined using concentration–response curves generated in GraphPad 8 software. […]

The test system of another assay is P. falciparum 7G8 strain. In words: SYBR Green growth assay, asexual blood stages, 7G8 strain. It counts as cell-based, Plasmodium falciparum. Particulars: for IC50: Plasmodium falciparum. The procedure:
as §4, §2, §5

Assay [7] concerns P. falciparum ATQ_R1 strain. Description: SYBR Green growth assay, asexual blood stages, ATQ_R1 strain. It counts as cell-based, Plasmodium falciparum. Particulars: for IC50: Plasmodium falciparum. The procedure: as §4, §2, §5
The subject of the next assay is P. falciparum HB3 strain. Description: SYBR Green growth assay, asexual blood stages, HB3 strain. Particulars: for IC50: Plasmodium falciparum. It counts as cell-based, Plasmodium falciparum. The procedure: as §1, §2, §3
The mark [8] stands for this setting: Plasmodium falciparum, 3D7, 72 h, asexual blood stages, 3D7 sensitive strain, 72 h, read-out: IC50.
[9] abbreviates: asexual blood stages, 3D7 sensitive strain, 72 h, read-out: IC50.

Values joined by “and” are separate entries in the source; they are usually repeats but may differ in a detail not shown here. Equal entries are not always repeated. Where two headings read alike, the source gives them in different places.

With `CCCCCCOc1ccc(-c2cc(=O)c3ccccc3[nH]2)cc1` [compound 6, 2-(4-(Hexyloxy)-phenyl)-quinolin-4(1H)-one], the “reduction of the density of sporozoites per mosquito” value is reported as 31% in [1] (2 μM) and 10% in assay [1] (10 μM). In addition, the results for the “reduction in the oocyst density per mosquito midgut” value in [1] (2 μM) and in [1] (10 μM) were 29% and 53%, respectively. Further, the IC50 in [2] (setting [8]) amounted to 560 ± 70 nM; in assay [2] (setting [9]), 500 nM.

Take `CCCCCCCCCCCc1cc(=O)c2ccccc2[nH]1` [compound 1, 2-Undecilquinolin-4(1H)-one]: the IC50 is 800 ± 100 nM in assay [3] (72 h); 700 nM in [3] (read-out: IC50 (Figure S1)); 7000 ± 1000 nM in assay [4] (Plasmodium falciparum, 72 h); 60 to 800 nM in [6] (HB3, read-out: IC50 values); 290 to 790 nM in assay [6] (TM90C6B, read-out: submicromolar activity); 270 nM in [2] (Plasmodium falciparum, 3D7, 3D7, strain assigned by order of panels, read-out: IC50 (Figure S1)). Besides, the IC50 was determined as 210 ± 40 nM in assay [2] (setting [8]); 200 ± 100 nM in assay [2] (setting [9]); 200 nM in the assay with P. falciparum 7G8 strain (7G8, strain assigned by order of panels, read-out: IC50 (Figure S1)); 270 ± 10 nM with P. falciparum 7G8 strain (7G8 strain, 72 h, read-out: IC50); 600 ± 100 nM in assay [7] (72 h); 800 nM in assay [7] (read-out: IC50 (Figure S1)). Moreover, the IC50 was found to be 260 nM in the assay with P. falciparum HB3 strain (HB3, strain assigned by order of panels, read-out: IC50 (Figure S1)) and 430 ± 50 nM with P. falciparum HB3 strain (HB3 strain, 72 h, read-out: IC50). For the same molecule, the “RI (resistance index)” value was 4.0 in assay [3] (ratio of IC50 V1S to 3D7); 35 in assay [4] (ratio of IC50 SB1-A6 to 3D7); 1.3 in the assay on P. falciparum 7G8 strain (ratio of IC50 7G8 to 3D7); 3.0 in [7] (ratio of IC50 ATQ_R1 to 3D7); 2.1 in the assay on P. falciparum HB3 strain (ratio of IC50 HB3 to 3D7). The “reduction of exflagellation centers (ex vivo)” value is 23,8% and 24% in [5] (1 μM); 63,9% and 64% in assay [5] (10 μM). Besides, the results for the “reduction of infection prevalence” value in assay [1] (2 μM) and in assay [1] (10 μM) were 31% and 71%, respectively. In addition, in [1] (2 μM), the “reduction of the density of sporozoites per mosquito” value is recorded as 39%. Also, the “reduction in the oocyst density per mosquito midgut” value in assay [1] (2 μM) came out at 74%; in assay [1] (10 μM) it was 95%.

The record behind these values is PMC12631437, “Evaluation of the Activity of 4‑Quinolones against Multi-Life Stages of Plasmodium spp” (ACS Omega, 2025).
